PubChem BioAssay AID624129 (Sanford-Burnham Center for Chemical Genomics, 2012)
The source made the active and inactive calls. No rule for the calls is given here.

Legend:
Test in all cases: potency against CXCR6 with APJ panel – cell-based, beta-arrestin, DiscoveRx, uHTS hits, dose response (AID 624129)
[1] = molecular target: Apelin receptor (Homo sapiens) (UniProt P35414); conditions: CXCR6 beta-arrestin (DiscoveRx) antagonist cell assay, APJ
[2] = molecular target: C-C chemokine receptor type 6 (Homo sapiens) (UniProt P51684); conditions: CXCR6 beta-arrestin (DiscoveRx) antagonist cell assay
[3] = molecular target: Beta-galactosidase (Escherichia coli) (UniProt Q8VNN2); conditions: CXCR6 beta-arrestin (DiscoveRx) antagonist cell assay, b-galactosidase
[4] = molecular target: C-X-C chemokine receptor type 6 (Homo sapiens) (UniProt O00574); conditions: CXCR6 beta-arrestin (DiscoveRx) antagonist cell assay; for inhibition: CXCR6, run 1, dose range 2, at 80 µM (top of the series)
[5] = dose range 1, mean IC50 across replicates
[6] = CCR6, dose range 1, mean IC50 across replicates
[7] = CXCR6, dose range 1, mean IC50 across replicates

Beta-galactosidase (Escherichia coli), sequence (Q8VNN2 whole entry, looked up): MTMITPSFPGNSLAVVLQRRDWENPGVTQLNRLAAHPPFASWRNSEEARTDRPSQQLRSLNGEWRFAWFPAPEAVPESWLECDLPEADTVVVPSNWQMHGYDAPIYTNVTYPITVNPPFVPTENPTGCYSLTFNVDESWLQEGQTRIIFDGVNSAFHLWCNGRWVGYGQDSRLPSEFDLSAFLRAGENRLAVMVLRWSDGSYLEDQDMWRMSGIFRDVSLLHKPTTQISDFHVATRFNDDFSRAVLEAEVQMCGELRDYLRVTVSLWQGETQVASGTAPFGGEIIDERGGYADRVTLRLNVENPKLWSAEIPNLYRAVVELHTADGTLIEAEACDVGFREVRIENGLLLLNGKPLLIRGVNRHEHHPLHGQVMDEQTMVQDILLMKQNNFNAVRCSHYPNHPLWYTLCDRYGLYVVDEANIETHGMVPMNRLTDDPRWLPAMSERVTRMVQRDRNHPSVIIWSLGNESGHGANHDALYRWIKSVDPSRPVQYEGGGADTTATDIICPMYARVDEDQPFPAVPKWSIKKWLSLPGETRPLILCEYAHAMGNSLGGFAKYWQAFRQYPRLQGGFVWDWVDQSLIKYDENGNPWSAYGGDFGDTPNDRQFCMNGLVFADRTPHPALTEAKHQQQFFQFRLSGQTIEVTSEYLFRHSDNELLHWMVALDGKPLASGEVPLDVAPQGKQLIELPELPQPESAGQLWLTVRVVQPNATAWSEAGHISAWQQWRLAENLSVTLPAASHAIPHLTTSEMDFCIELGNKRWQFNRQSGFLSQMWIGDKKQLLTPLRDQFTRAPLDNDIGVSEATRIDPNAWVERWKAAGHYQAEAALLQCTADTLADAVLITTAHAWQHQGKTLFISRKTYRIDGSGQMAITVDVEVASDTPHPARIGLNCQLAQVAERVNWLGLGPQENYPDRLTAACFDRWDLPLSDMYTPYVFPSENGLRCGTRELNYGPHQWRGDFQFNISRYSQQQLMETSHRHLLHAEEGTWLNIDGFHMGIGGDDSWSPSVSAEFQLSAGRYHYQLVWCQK
C-X-C chemokine receptor type 6 (Homo sapiens), sequence (O00574 whole entry, looked up): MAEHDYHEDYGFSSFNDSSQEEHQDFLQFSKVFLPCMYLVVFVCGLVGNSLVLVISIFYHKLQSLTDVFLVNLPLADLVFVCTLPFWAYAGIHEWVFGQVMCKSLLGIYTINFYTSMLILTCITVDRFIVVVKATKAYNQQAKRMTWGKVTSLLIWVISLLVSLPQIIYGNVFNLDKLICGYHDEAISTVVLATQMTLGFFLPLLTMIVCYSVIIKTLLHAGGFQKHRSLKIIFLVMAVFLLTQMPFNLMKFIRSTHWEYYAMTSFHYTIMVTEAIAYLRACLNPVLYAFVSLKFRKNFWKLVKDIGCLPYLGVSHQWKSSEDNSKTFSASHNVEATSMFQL

Structure (SMILES)	IC50 ([1]; dose range 1) [µM]	IC50 [1, 5] [µM]	IC50 ([1]; run 2, dose range 1) [µM]	IC50 ([1]; run 3, dose range 1) [µM]	IC50 ([2]; CCR6, dose range 1)	IC50 [2, 6] [µM]	IC50 ([2]; CCR6, run 2, dose range 1) [µM]	IC50 ([3]; dose range 1)	IC50 [3, 5] [µM]	IC50 ([4]; CXCR6, dose range 1)	IC50 [4, 7] [µM]	inhibition [4] [%]	IC50 ([4]; CXCR6, run 2, dose range 1) [µM]	IC50 ([4]; CXCR6, run 1, dose range 2) [µM]	IC50 ([4]; CXCR6, run 2, dose range 2) [µM]
COC(=O)C1=C(c2ccc(-c3ccccc3)c(F)c2)C[C@@H]2CC[C@H]1N2C(=O)N1CCC(C)CC1	8.49	10.9	13.8	10.3	4.9 µM	8.25	11.6	> 80 µM (inactive)	> 80	inactive	11.2	88	10.8		
CCC(=O)OCOc1ccc(/C=C2/CCC(CN(C)C)C2=O)cc1 (centres undefined)	17.2	16.8	15.2	17.9	10.3 µM	11.1	11.9	> 80 µM (inactive)	> 80	inactive	12.6	124	10.2		
C=CS(=O)(=O)c1ccc(Oc2ccc(S(=O)(=O)C=C)cc2)cc1	13.1	12.2	9.91	13.7	7.57 µM	7.23	6.88	> 80 µM (inactive)	> 80	10.2 µM	10.8		12.2	8.79	11.9
Cc1c(Cl)sn(-c2ccc(Cl)cc2)c1=O	16.4	22.8	14.4	37.5	3.26 µM	3.71	4.17	> 80 µM (inactive)	> 80	8.91 µM	9.37		7.95	11.2	9.39
CC(C)c1ccc(O)c(NC(=S)NC(=O)c2cccnc2)c1	8.65	9.87	10.6	10.4	10.6 µM	10	9.43	inactive	51.9	inactive	14.9		20.7	12.7	8.67
Fc1ccc(NC(=S)Nc2nccs2)cc1	13.6	13.7	14.1	13.3	10.8 µM	12.6	14.3	> 80 µM (inactive)	> 80	inactive	14.1		14	8.52	13.3
CCCCOc1ccc(C(=O)NNC(=S)NC(=O)CC)cc1	8.68	15.4	10.6	27.1	7.58 µM	8.35	9.11	> 80 µM (inactive)	> 80	7.96 µM	10.4		16	7.49	10
C/C(=N\NC(=O)C(c1ccccc1)c1ccccc1)c1ccccn1	7.16	12	9.32	19.6	1.99 µM	2.25	2.52	> 80 µM (inactive)	> 80	3.04 µM	4.66		10.9	2.25	2.44
O=C(Cn1sc2ccccc2c1=O)NC12CC3CC(CC(C3)C1)C2	2.02	3.22	5.54	2.1	1.54 µM	1.66	1.78	> 80 µM (inactive)	> 80	2.69 µM	2.42	70.8	2.16		
Cc1[nH][nH]c(=O)c1C(c1c(C)[nH][nH]c1=O)c1cn(Cc2ccc(F)cc2)c2ccccc12	34.9	33.3	32.9	32	23 µM	21.6	20.2	> 80 µM (inactive)	> 80	inactive	28.2	97.7	27.7		
N#Cc1c(C#N)c(SSc2c(C#N)c(C#N)c(N)n2-c2ccccc2)n(-c2ccccc2)c1N		2.15	> 80	2.15	> 80 µM (inactive)	> 80	> 80	> 80 µM (inactive)	> 80		10.7		> 80	10.6	10.9
O=[N+]([O-])/C=C/c1c(Cl)cccc1Cl		14.3	> 80	14.3		> 80	> 80	> 80 µM (inactive)	> 80	> 80 µM (inactive)	> 80	54	> 80		
CNc1cc(Cl)c2nonc2c1[N+](=O)[O-]	5.88	8.61	4.89	15.1	3.13 µM	3.29	3.46	> 80 µM (inactive)	> 80	3.61 µM	3.39		4.12	3.02	2.83
CCN1/C(=C\C=C2\C(=O)N(c3ccccc3)C(=S)N2C)Sc2ccccc21	8.97	11.3	13.9	11	4.79 µM	5.43	6.07	> 80 µM (inactive)	> 80	7.42 µM	6.24	91.3	5.05		
CCO[C@@H]1OC(C(=O)N2CCN(Cc3ccccc3)CC2)=C[C@H](c2ccc(Br)cc2)[C@H]1CCCO	16.6	19.4	21.1	20.4	11.4 µM	11.5	11.6	> 80 µM (inactive)	> 80	inactive	12.1	126	9.21		
CCOc1ccc(N(CC(=O)N/N=C/c2ccccn2)S(=O)(=O)c2ccc(Cl)cc2)cc1	14.4	14.2	> 80	13.9	11.4 µM	12.7	13.9	> 80 µM (inactive)	> 80	inactive	27.1		61.1	10.4	11.9
Cc1ccsc1/C=C/c1ccc2cccc(O)c2n1	6.75	7.71	9.69	6.7	5.29 µM	6.51	7.72	> 80 µM (inactive)	> 80	6.32 µM	5.47		8.63	3.12	3.82
Cc1cccc(C)c1NC(=O)c1nc(S(=O)(=O)Cc2ccccc2)ncc1Cl		> 80	> 80	> 80		> 80	> 80	> 80 µM (inactive)	> 80	> 80 µM (inactive)	> 80	-9.6	> 80		
CCCC(=O)OCCNc1cc(Sc2nc3ccccc3[nH]2)c2nonc2c1[N+](=O)[O-]	12.4	9.49	5.87	10.2	5.26 µM	5.55	5.83	inactive	50.4	5.82 µM	6.71		6.36	7.57	7.1
COc1ccc(OC)c2sc(N(CCCN(C)C)C(=O)CCS(=O)(=O)c3ccccc3)nc12	21.7	19.6	18.2	19	10.4 µM	11.3	12.3	> 80 µM (inactive)	> 80	inactive	12.5	114	10.6		
CN(c1ccccc1)S(=O)(=O)c1ccc(NC(=O)c2nc(S(C)(=O)=O)ncc2Cl)cc1	7.36	7.72	7.88	7.91	6.25 µM	5.69	5.13	> 80 µM (inactive)	> 80	6.05 µM	7.41		6.38	8.06	9.16
